The source of these data is ChEMBL document CHEMBL4823315 (Bioorg Med Chem Lett, 2021).

Data set [1] is described as follows: Inhibition of p70S6K (unknown origin). Details: species or system Homo sapiens.
For data set [2], the target named is Cytochrome P450 3A4 (Homo sapiens, UniProt P08684). Put plainly: Inhibition of CYP3A4 (unknown origin). Type of data set: ADME.
The nature of data set [3]: Oral bioavailability in cynomolgus monkey at 0.5 mg/kg. Format: ADME, organism-based, Macaca fascicularis. Conditions: in vivo.
Data set [4] is described as follows: Cmax in CD-1 mouse at 5 mg/kg, iv. Conditions: in vivo. Details: route intravenous, dose 5 mg/kg. Type of data set: ADME, organism-based.
Data set [5] can be described thus: In vivo Inhibition of Akt/p70S6K in mouse xenografted with human MDA-MB-436 cells assessed as reduction in S6 phosphorylation in tumor at 200 mg/kg, po measured after 24 hrs. Format: functional. To be noted: MDA-MB-436, po. In general terms: Xenograft models place foreign cells or tissue in a host animal.
Data set [6] is described as follows: Half life in CD-1 mouse at 5 mg/kg, po or 5 mg/kg, iv. To be noted: in vivo. Format: ADME, organism-based.
The nature of data set [7]: AUC in CD-1 mouse at 5 mg/kg, po. Type of data set: ADME, organism-based. Details: dose 5 mg/kg. Conditions: in vivo.
Data set [8] can be described thus: Oral bioavailability in CD-1 mouse at 5 mg/kg. Format: ADME, organism-based. To be noted: in vivo.
Data set [9] concerns the target T1, Cytochrome P450 1A2 (Homo sapiens, UniProt P05177).
T1 sequence (P05177 whole entry): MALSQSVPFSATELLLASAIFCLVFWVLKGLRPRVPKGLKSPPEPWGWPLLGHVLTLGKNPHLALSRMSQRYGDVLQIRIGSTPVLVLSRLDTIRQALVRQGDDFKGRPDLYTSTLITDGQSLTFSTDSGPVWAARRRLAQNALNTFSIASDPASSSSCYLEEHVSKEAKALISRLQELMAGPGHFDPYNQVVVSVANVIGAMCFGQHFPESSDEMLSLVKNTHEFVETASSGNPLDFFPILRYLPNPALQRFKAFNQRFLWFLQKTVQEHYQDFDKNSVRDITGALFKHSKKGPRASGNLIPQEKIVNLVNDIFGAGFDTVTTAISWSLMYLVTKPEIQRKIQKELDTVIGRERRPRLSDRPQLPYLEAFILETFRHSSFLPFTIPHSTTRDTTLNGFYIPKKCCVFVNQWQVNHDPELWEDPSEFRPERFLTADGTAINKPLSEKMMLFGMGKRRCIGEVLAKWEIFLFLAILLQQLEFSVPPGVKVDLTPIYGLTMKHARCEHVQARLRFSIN
Put plainly: Inhibition of CYP1A2 (unknown origin). Format: ADME.

Data set [10] is described as follows: Thermodynamic solubility of the compound at pH 7.4. Format: physicochemical. To be noted: buffer, read-out: Therm_solubility.
Data set [11] in a line: Toxicity in mouse xenografted with human MDA-MB-436 cells assessed as loss of body weight at 25 to 75 mg/kg, po administered qd measured for 28 days. Format: organism-based. Conditions: in vivo, 672 h, dose 25-75 mg/kg, time 28 day.
Data set [12] concerns the target Voltage-gated inwardly rectifying potassium channel KCNH2 (Homo sapiens, UniProt Q12809). The data set can be described thus: Inhibition of human ERG by patch clamp assay.
Data set [13] in a line: AUC in Beagle dog at 0.5 mg/kg, po. To be noted: in vivo. Details: dose 0.5 mg/kg. Format: ADME, organism-based, Canis lupus familiaris.
The test system of data set [14] is MDA-MB-436. Put plainly: Antitumor activity against human MDA-MB-436 cells xenografted in mouse assessed as tumor growth inhibition at 25 mg/kg, po qd and measured for 28 days. Format: functional. Conditions: MDA-MB-436, po, 672 h, time 28 day, read-out: TGI.
Data set [15] can be described thus: Clearance in Beagle dog at 0.5 mg/kg, po or 0.2 mg/kg, iv. Format: ADME, organism-based, Canis lupus familiaris. To be noted: in vivo.
Data set [16] in a line: Oral bioavailability in Sprague-Dawley rat at 5 mg/kg. Format: ADME, organism-based. To be noted: in vivo.
The target of data set [17] is Cytochrome P450 2C9 (Homo sapiens, UniProt P11712). The data set can be described thus: Inhibition of CYP2C9 (unknown origin). Format: ADME.
Cytochrome P450 2C9, sequence (P11712 whole entry): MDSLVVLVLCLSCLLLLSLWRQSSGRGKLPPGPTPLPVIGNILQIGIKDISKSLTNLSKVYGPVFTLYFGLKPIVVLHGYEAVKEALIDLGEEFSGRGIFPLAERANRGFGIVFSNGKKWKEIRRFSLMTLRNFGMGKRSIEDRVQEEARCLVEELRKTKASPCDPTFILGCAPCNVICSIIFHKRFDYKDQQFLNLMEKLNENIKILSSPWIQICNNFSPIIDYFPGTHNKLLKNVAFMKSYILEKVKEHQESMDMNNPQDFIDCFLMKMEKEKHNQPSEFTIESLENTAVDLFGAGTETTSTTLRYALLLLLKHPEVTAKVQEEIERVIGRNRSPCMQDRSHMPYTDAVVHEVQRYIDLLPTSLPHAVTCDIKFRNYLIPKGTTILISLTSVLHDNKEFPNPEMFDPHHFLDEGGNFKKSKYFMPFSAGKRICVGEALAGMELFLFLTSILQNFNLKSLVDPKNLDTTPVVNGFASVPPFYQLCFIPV
Data set [18] in a line: Cmax in Beagle dog at 0.5 mg/kg, po. Format: ADME, organism-based, Canis lupus familiaris. Details: route oral, dose 0.5 mg/kg. To be noted: in vivo.
Data set [19] in a line: Protein binding in human plasma assessed as unbound fraction. Format: ADME, cell-free.
Data set [20] has as its system MDA-MB-436. The data set can be described thus: Antitumor activity against human MDA-MB-436 cells xenografted in mouse assessed as tumor growth inhibition at 75 mg/kg, po qd and measured for 28 days. Type of data set: functional. To be noted: MDA-MB-436, po, 672 h, time 28 day, read-out: TGI.

Each structure is given as a SMILES string. Values after ≈ are worked out from the molar mass of the structure shown.

Cytochrome P450 3A4, sequence (P08684 whole entry): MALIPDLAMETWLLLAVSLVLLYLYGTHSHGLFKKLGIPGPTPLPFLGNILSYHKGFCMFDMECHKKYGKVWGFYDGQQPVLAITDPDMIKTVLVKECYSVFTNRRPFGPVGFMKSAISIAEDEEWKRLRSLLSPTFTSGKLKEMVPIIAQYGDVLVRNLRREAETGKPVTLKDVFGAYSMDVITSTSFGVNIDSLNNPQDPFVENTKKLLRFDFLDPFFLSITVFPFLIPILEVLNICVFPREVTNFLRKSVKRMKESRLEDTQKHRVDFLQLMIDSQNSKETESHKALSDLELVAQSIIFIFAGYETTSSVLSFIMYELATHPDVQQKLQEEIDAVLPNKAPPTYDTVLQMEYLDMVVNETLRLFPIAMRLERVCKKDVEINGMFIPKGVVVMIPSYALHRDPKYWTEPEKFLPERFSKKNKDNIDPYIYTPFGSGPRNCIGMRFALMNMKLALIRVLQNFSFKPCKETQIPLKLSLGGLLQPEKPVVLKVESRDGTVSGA
Voltage-gated inwardly rectifying potassium channel KCNH2, sequence (Q12809 whole entry): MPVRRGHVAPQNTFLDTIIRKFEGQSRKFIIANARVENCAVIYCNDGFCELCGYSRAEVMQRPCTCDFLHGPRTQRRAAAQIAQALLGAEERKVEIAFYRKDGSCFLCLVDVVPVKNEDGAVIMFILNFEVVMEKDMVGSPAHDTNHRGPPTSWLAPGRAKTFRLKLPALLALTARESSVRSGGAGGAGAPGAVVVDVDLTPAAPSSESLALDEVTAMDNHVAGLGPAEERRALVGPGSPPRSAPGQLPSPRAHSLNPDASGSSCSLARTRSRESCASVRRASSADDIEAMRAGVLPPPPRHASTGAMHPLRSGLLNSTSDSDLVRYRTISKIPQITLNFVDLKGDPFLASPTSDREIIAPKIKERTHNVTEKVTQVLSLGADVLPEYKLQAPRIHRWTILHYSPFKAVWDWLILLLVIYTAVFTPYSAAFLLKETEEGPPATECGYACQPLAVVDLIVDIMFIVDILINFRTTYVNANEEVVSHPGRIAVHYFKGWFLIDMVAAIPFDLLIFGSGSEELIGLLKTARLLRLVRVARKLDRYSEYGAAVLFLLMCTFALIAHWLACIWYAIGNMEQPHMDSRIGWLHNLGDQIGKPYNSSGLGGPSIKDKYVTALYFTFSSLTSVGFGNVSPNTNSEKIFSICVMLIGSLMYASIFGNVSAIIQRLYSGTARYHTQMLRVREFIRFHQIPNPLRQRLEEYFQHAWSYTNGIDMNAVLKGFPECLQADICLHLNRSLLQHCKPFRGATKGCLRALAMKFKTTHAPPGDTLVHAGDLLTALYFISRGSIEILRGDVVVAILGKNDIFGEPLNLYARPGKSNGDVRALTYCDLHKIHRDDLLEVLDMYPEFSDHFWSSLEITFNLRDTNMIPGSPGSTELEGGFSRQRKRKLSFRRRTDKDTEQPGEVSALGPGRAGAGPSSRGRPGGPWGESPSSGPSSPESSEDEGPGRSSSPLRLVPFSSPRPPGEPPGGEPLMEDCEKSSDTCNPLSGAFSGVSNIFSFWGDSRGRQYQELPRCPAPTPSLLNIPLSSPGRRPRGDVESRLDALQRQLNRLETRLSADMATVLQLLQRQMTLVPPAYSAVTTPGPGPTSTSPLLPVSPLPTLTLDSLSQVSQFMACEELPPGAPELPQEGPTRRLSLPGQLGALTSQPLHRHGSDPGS

As usually defined, the IC50 is the concentration at which inhibition is half-maximal. As usually defined, the bioavailability is the share of a dose that reaches the circulation, judged against a reference dose that is usually intravenous. A word on the Cmax: it is the peak of the concentration-time curve. The half-life is the time in which the quantity being followed falls by half. The AUC is the area under the concentration-time curve, a measure of exposure. By fraction unbound is commonly meant free concentration divided by total concentration. As for `NC(=O)c1c(N)ncnc1N1CCC(c2nc(-c3ccc(F)c(C(F)(F)F)c3)cn2CCN2CCC2)CC1`, the IC50 was 0.003 µM in data set [1]; over 20 µM in data set [2]; over 20 µM in data set [9]; 17.4 µM in data set [12]; over 20 µM in data set [17]. Also, the bioavailability in [3] is 23%; in data set [8], 63%; in [16] it was 17%. Also, the Cmax in data set [4] was 163 ng/mL; in data set [18], 67.8 ng/mL. For the same compound, the inhibition in vivo at 200 mg/kg in [5] was 92%. Besides, in data set [6], the half-life is 9.3 h. Further, the results for the AUC in data set [7] and in [13] were 417 ng·h/mL and 2370 ng·h/mL, respectively. The solubility thermodynamic in data set [10] was determined as 4 µg/mL (≈ 7.51 µM). In addition, the Activity in data set [11] is under 5%. For the same compound, the inhibition in vivo at 25 mg/kg in data set [14] was 81%. In data set [15], the clearance is 4.67 mL/min/kg. Moreover, the fraction unbound in data set [19] turned out to be 0.21. Moreover, the inhibition in vivo at 75 mg/kg in data set [20] was determined as 100%.
